Legend:
[1] = test system: standard, unfractionated heparin; assay: Percent reversal of standard heparin anticoagulation by variant peptides and protamine, in vivo canine study, coagulation tests; set-up: species or system dogs; details: for Percent reversal of heparin anticoagulation, ACT: dogs, heparin 150 IU/kg IV, agent 1.5 mg/kg IV over 10 seconds
Procedure: Data are expressed as a mean ±1 SD. Statistical analysis using linear regression for determination of correlation coefficients, and analysis of variance (ANOVA) or unpaired two-way Student's t-test; p<0.05 was accepted as statistically significant.
Anticoagulation reversal was assessed by a number of standard coagulation tests performed upon samples of venous blood: activated clotting time (ACT), prothrombin time (PT), activated partial thromboplastin time (aPTT), thrombin clotting time (TCT), heparin concentration by assay for FXa inhibitory activity (FXa), white cell count (WBC), and platelet counts (PLT). Measurements were made 3 minutes prior to heparin reversal (baseline) and 3 minutes and 30 minutes post-administration of the heparin reversal agent. The "Heparin" row sets forth the observed reversal as a consequence of expected heparin metabolism or degradation alone.

LMWH (LHN-1, Logiparin) = assay: Percent reversal of low molecular weight heparin anticoagulation, in vivo canine study, coagulation tests; set-up: species or system dogs; details: for aPTT reversal: Logiparin
Procedure: Anticoagulation reversal was assessed by a number of standard coagulation tests performed upon samples of venous blood: activated clotting time (ACT), heparin concentration by assay for FXa inhibitory activity (FXa), thrombin clotting time (TCT), and heparin concentration by assay for FIIa inhibitory activity (FIIa). Measurements were made 3 minutes prior to heparin reversal (baseline) and 3 minutes, 10 minutes, and 30 minutes post-administration of the heparin reversal agent. […] The coagulation data were corrected for naturally occurring metabolism.

[2] = Platelet and white blood cell count after LMWH reversal, canine study; format: in vivo; details: dogs, Logiparin
Procedure: In addition to the measurements reported on Table 6, studies were conducted to measure the activated partial thromboplastin time (aPTT), platelet count, and white blood cell count. […] However, the [+18B] variant produced greater aPTT reversal than protamine at the 3, 10 and 30 minute measurements (64%, 95%, and 93%, respectively, as compared to 50%, 83%, and 78%, respectively, for protamine).

[3] = Platelet count, leukocyte count and bleeding time after LMWH reversal at different rates, canine study; format: in vivo, dogs
Procedure: (§1) The anticoagulation-reversing agents were administered rapidly over 10 seconds to maximize hemodynamic effects or more slowly over a 3 minute interval. Changes in LMWH anticoagulation occurring from metabolism alone were determined in a separate group of dogs not given any reversal agent.

[4] = test system: standard, unfractionated heparin; assay: Factor Xa and IIa reversal after standard heparin, cell adhesion ligand analogs, canine study; format: in vivo; details: dogs, 3 min post administration
Procedure: Anticoagulation reversal was assessed by a number of standard coagulation tests performed upon samples of venous blood in the manner described hereinabove. Measurements were made 3 minutes prior to heparin reversal (baseline) and 3 minutes, 10 minutes, and 30 minutes post-administration of the heparin reversal agent. […] Referring to FIGS. 4a through 4d, compound [+18RGD] performs as well, or better, than n-protamine in the standard coagulation tests performed in these studies.

[5] = Percent change in platelet count after standard heparin reversal, cell adhesion ligand analogs, canine study; format: in vivo; details: dogs, agent over 10 seconds
Procedure: In addition to hemodynamic changes, Table 15 lists the percent change in platelet count following administration of n-protamine and the selected variants, as well as the factor Xa and factor IIa reversal, as a percent change at 3 minutes post administration of the compound.

LMWH (Enoxaparin) = assay: Factor Xa and IIa reversal after LMWH Enoxaparin, canine study; format: in vivo; details: dogs, 3 min
Procedure: Similar studies were conducted to assess the ability of the protamine-like peptide analogs described in this section to reverse the anticoagulation effects of the LMWH, Enoxaparin. FIG. 5a through FIG. 5d are graphical representations of LMWH anticoagulation activities achieved by n-protamine (Protamine [+21]), and compounds [+18BE], [+18KDEL], and [+18RGD] plotted as a percent of reversal against time in minutes. […] Referring to FIG. 5c, compound [+18RGD] dramatically outperforms n-protamine in reversing the heparin antifactor Xa activity of Enoxaparin.

[6] = Percent change in platelet count after Enoxaparin reversal, canine study; format: in vivo; details: dogs, agent over 10 seconds
Procedure: Seven female dogs (mean weight 15-20 kg) received intravenous standard, unfractionated heparin (150 IU/kg IV) or LMWH (Enoxaparin, Rhone-Poulac, France; 100 IU/kg factor Xa activity) followed by reversal with commercial salmine protamine (n-protamine purchased from Eli Lilly, Indianapolis, Ind., 1.5 mg/kg (100 IU/mg) IV) or an anticoagulation-reversing agent which is a protamine-like peptide variant identified hereinbelow. In these studies, the anticoagulation-reversing agents were administered over a 10 second interval to maximize the hemodynamic effects.

[7] = clinical use; cited from earlier work
[8] = Hemodynamic studies and total toxicity score after standard heparin reversal, canine study; details: dogs
Procedure: As used hereinafter, the peptides will be identified by their total cationic charge value, e.g., [+8], [+16], etc.
Hemodynamic studies were conducted by measuring mean arterial pressure (MAP), heart rate (HR), and maximum percent changes in cardiac output (CO) and systemic oxygen consumption (VO2).
Total toxicity scores (TTS) were developed that reflected maximum declines in each of four parameters (MAP, CO, VO2 and HR) over the first 5 minutes after reversal, the latter being the time of expected greatest adverse hemodynamic effect. The maximum changes occurring in an individual dog over the first 5 minutes were divided by the standard deviation derived from the entire group of tested animals and the four scores were added, resulting in a TTS for each individual dog. The TTS values for each dog were then summed to obtain an average TTS and SD for each peptide studied.

[9] = Hemodynamic studies and total toxicity score after LMWH reversal at different rates, canine study; details: dogs, Logiparin
Procedure: as §1
Hemodynamic studies were conducted by measuring mean arterial pressure (MAP) in mm Mercury, maximum percent changes in cardiac output (CO) and systemic oxygen consumption (VO2), and heart rate (HR) in beats per minute. Measurements and calculations were made at baseline, before LMWH administration, 3 minutes before reversal, every 30 seconds for 5 minutes after reversal, and at 10, 20, and 30 minutes after reversal.
(§2) TTS were developed that reflected maximum declines in each of four parameters (MAP, CO, VO2 and HR) over the first 5 minutes after reversal in the same manner as described hereinabove.

[10] = Hemodynamic studies and total toxicity score after standard heparin reversal at different rates, dogs
Procedure: Hemodynamic studies were conducted by measuring mean arterial pressure (MAP) in mm Mercury, maximum percent changes in cardiac output (CO) and systemic oxygen consumption (VO2), and heart rate (HR) in beats per minute. Measurements and calculations were made at baseline, before LMWH administration, 3 minutes before reversal, every 30 seconds for 5 minutes after reversal.
as §2

[11] = dogs, Logiparin, administered over 3 min

Substance: PR4 S3 RPVR5 PRVSR6 G2 R4 [Protamine [+21], reference compound]
- Percent reversal of heparin anticoagulation, ACT ([1]; 3 min post-administration): 102%
- Percent reversal of heparin anticoagulation, ACT ([1]; 30 min): 90%
- Percent reversal of heparin anticoagulation, APTT ([1]; same study, 3 min): 100%
- Percent reversal of heparin anticoagulation, FNa ([1]; same study, 3 min): 102%
- Percent reversal of heparin anticoagulation, FXa ([1]; same study, 3 min): 101%
- Percent reversal of heparin anticoagulation, PT ([1]; same study, 3 min): 84%
- Percent reversal of heparin anticoagulation, TCT ([1]; same study, 3 min): 101%
- Percent reversal of heparin anticoagulation, APTT ([1]; same study, 30 min): 127%
- Percent reversal of heparin anticoagulation, FXa ([1]; same study, 30 min): 96%
- Percent reversal of heparin anticoagulation, PT ([1]; same study, 30 min): 88%
- Percent reversal of heparin anticoagulation, TCT ([1]; same study, 30 min): 100%
- aPTT reversal (LMWH (LHN-1, Logiparin); dogs, 3 minute measurement): 50%
- aPTT reversal (LMWH (LHN-1, Logiparin); dogs, 10 minute measurement): 83%
- aPTT reversal (LMWH (LHN-1, Logiparin); dogs, 30 minute measurement): 78%
- Percent reversal of LMWH anticoagulation, ACT (LMWH (LHN-1, Logiparin); dogs, Logiparin 150 IU/kg, agent 1.5 mg/kg IV after 30 min, 3 min post-administration, corrected for metabolism): 99%
- Percent reversal of LMWH anticoagulation, FNa (LMWH (LHN-1, Logiparin); same study, 3 min): 99%
- Percent reversal of LMWH anticoagulation, FXa (LMWH (LHN-1, Logiparin); same study, 3 min): 63%
- Percent reversal of LMWH anticoagulation, TCT (LMWH (LHN-1, Logiparin); same study, 3 min): 100%
- Percent reversal of LMWH anticoagulation, ACT (LMWH (LHN-1, Logiparin); same study, 10 min): 88%
- Percent reversal of LMWH anticoagulation, FXa (LMWH (LHN-1, Logiparin); same study, 10 min): 45%
- Percent reversal of LMWH anticoagulation, TCT (LMWH (LHN-1, Logiparin); same study, 10 min): 98%
- Percent reversal of LMWH anticoagulation, ACT (LMWH (LHN-1, Logiparin); same study, 30 min): 82%
- Percent reversal of LMWH anticoagulation, FNa (LMWH (LHN-1, Logiparin); same study, 30 min): 86%
- Percent reversal of LMWH anticoagulation, FXa (LMWH (LHN-1, Logiparin); same study, 30 min): 44%
- Percent reversal of LMWH anticoagulation, TCT (LMWH (LHN-1, Logiparin); same study, 30 min): 96%
- mean decline in platelet count [2]: -43%
- Maximal decline in leukocyte count ([3]; dogs, Logiparin, administered over 10 sec): -3%
- Maximal decline in leukocyte count [3, 11]: -26%
- Maximal thrombocytopenia [3, 11]: -32%
- bleeding time ([3]; selected animals, given over a 3 minute interval): ≤ 8 min
- IIa Reversal [4]: 98%
- Xa Reversal [4]: 99%
- Platelet (percent change in platelet count) [5]: -54%
- IIa Reversal (LMWH (Enoxaparin)): 98%
- Xa Reversal (LMWH (Enoxaparin)): 30%
- Platelet (percent change in platelet count) [6]: -40%
- cases with significant systemic arterial hypertension and pulmonary artery hypertension [7]: about 4%
- ΔHR [8]: -29
- ΔMAP ([8]; average maximum decline in first five minutes after peptide administration): -34
- average total toxicity score (TTS±SD) ([8]; first 5 minutes after reversal, more negative = more toxic): -7.0±5.2
- ΔCO ([8]; maximum percent change): -38%
- ΔVO2 ([8]; maximum percent change): -35%
- Total Toxicity Score ([9]; administered over 10 sec): -6.4 ± 3.8
- ΔCO ([9]; administered over 10 sec): -32%
- ΔHr ([9]; administered over 10 sec): -18 beats per minute
- ΔMAP ([9]; administered over 10 sec): -32 mm Mercury
- ΔVO2 ([9]; administered over 10 sec): -26%
- Total Toxicity Score ([9]; administered over 3 min): -7.2 ± 3.5
- ΔCO ([9]; administered over 3 min): -28%
- ΔHr ([9]; administered over 3 min): -36 beats per minute
- ΔMAP ([9]; administered over 3 min): -18 mm Mercury
- ΔVO2 ([9]; administered over 3 min): -23%
- Total Toxicity Score ([10]; administered over 10 sec): -7.1 ± 4.63
- Total Toxicity Score ([10]; administered over 3 min): -5.66 ± 4.04
